# From patent US12545659B2, “IRAK degraders and uses thereof” (Kymera Therapeutics, Inc., priority 2019, dated 2026)
# Target: T1, IRAK4 (Homo sapiens, UniProt Q9NWZ3)
# T1 construct: endogenous in cells; host or cells: OCI-LY10
# T1 sequence (Q9NWZ3 1-460): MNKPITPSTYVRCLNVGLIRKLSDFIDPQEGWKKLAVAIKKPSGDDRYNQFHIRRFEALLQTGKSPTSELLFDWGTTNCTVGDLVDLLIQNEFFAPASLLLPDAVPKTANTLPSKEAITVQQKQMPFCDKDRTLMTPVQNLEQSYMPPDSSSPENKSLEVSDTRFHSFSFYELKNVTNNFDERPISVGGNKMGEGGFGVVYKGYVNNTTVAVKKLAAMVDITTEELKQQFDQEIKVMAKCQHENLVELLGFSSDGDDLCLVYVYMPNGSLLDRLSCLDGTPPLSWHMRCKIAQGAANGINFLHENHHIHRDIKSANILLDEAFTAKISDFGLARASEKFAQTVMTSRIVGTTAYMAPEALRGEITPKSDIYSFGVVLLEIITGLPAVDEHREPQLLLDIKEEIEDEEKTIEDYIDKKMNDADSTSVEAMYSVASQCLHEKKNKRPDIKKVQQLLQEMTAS
# Experiment: IRAK4 MSD Degradation in OCI-LY10
# Format: cell-based
# Details: OCI-LY10 cells, 4 hrs incubation, read-out: IRAK4 degradation in OCI-LY10 at 4 hrs: DC50
# In short: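 IRAK4 remaining in lysates was read by Meso Scale electrochemiluminescence sandwich (2H9 capture, Y279 plus SULFO-TAG detection). Cells were exposed 4 to 24 h at 37 °C to eight 3-fold dilutions from 1 to 10 μM final top; three-parameter logistic fit gave DC50.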
row,Compound,DC50 [nM]
1,Cn1c(=O)n(C2CCC(=O)NC2=O)c2cccc(C3CCN(C[C@H]4CC[C@H](n5cc6cc(NC(=O)c7cccc(C(F)(F)F)n7)c(C(C)(C)O)cc6n5)CC4)CC3)c21 (stereo partly shown) [I-226],< 50
2,"CN(CCCC#Cc1cccc2c1n(C)c(=O)n2C1CCC(=O)NC1=O)C[C@H]1CC[C@H](n2cc3cc(NC(=O)c4cccc(C(F)(F)F)n4)c(C(C)(C)O)cc3n2)CC1 (stereo partly shown) [I-228, N-(2-((1r,4r)-4-(((5-(1-(2,6-dioxopiperidin-3-yl)-3-methyl-2-oxo-2,3-dihydro-1H-benzo[d]imidazol-4-yl)pent-4-yn-1-yl)(methyl)amino)methyl)cyclohexyl)-6-(2-hydroxypropan-2-yl)-2H-indazol-5-yl)-6-(trifluoromethyl)picolinamide]",< 50
3,Cn1c(=O)n(C2CCC(=O)NC2=O)c2cccc(CC3CCN(C[C@H]4CC[C@H](n5cc6cc(NC(=O)c7cccc(C(F)(F)F)n7)c(C(C)(C)O)cc6n5)CC4)CC3)c21 (stereo partly shown) [I-229],< 50
4,CN(C[C@H]1CC[C@H](n2cc3cc(NC(=O)c4cccc(C(C)(C)C)n4)c(C(C)(C)O)cc3n2)CC1)C1CCN(Cc2cccc3c2n(C)c(=O)n3C2CCC(=O)NC2=O)CC1 (stereo partly shown) [I-235],< 50
5,Cn1c(=O)n(C2CCC(=O)NC2=O)c2cccc(CCN3CC4(CCN(C(=O)[C@H]5CC[C@H](n6cc7cc(NC(=O)c8cccc(C(F)(F)F)n8)c(C(C)(C)O)cc7n6)CC5)CC4)C3)c21 (stereo partly shown) [I-239],< 50
6,COc1cc2nn([C@H]3CC[C@H](CN4CCC(CCc5cccc6c5n(C)c(=O)n6C5CCC(=O)NC5=O)CC4)CC3)cc2cc1NC(=O)c1cccc(C(F)(F)F)n1 (stereo partly shown) [I-242],< 50
7,COc1cc2nn([C@H]3CC[C@H](CN4CCC(c5cccc6c5n(C)c(=O)n6C5CCC(=O)N(C)C5=O)CC4)CC3)cc2cc1NC(=O)c1cccc(C(F)(F)F)n1 (stereo partly shown) [I-257],500 to 1000
8,COc1cc2nn([C@H]3CC[C@H](CN4CCC(c5cccc6c5n(C)c(=O)n6C5CCC(=O)NC5=O)CC4)CC3)cc2cc1NC(=O)c1cccc(C(C)(C)O)n1 (stereo partly shown) [I-258],< 50
9,COc1cc2nn([C@H]3CC[C@H](CN4CCC5(CC4)CC(CCc4cccc6c4n(C)c(=O)n6C4CCC(=O)NC4=O)C5)CC3)cc2cc1NC(=O)c1cccc(C(F)(F)F)n1 (stereo partly shown) [I-259],50 to 100
10,COc1cc2nn([C@H]3CC[C@H](CN4CC(c5ccc6c(c5)n(C)c(=O)n6C5CCC(=O)NC5=O)C4)CC3)cc2cc1NC(=O)c1cccc(C(F)(F)F)n1 (stereo partly shown) [I-260],< 50
11,Cn1c(=O)n(C2CCC(=O)NC2=O)c2ccc(C3CCN(C[C@H]4CC[C@H](n5cc6cc(NC(=O)c7cccc(C(F)(F)F)n7)c(C(F)F)cc6n5)CC4)CC3)cc21 (stereo partly shown) [I-261],< 50
12,COc1cc2nn([C@H]3CC[C@H](CN4CCC(c5ccc6c(c5)n(C)c(=O)n6C5CCC(=O)NC5=O)CC4)CC3)cc2cc1NC(=O)c1cccc(C(F)(F)F)n1 (stereo partly shown) [I-262],< 50
13,Cn1c(=O)n(C2CCC(=O)NC2=O)c2cccc(C3CCN(C[C@H]4CC[C@H](n5cc6cc(NC(=O)c7cccc(C(F)(F)F)n7)c(C(F)F)cc6n5)CC4)CC3)c21 (stereo partly shown) [I-263],< 50
14,Cn1c(=O)n(C2CCC(=O)NC2=O)c2ccc(C3CN(C[C@H]4CC[C@H](n5cc6cc(NC(=O)c7cccc(C(F)(F)F)n7)c(C(F)F)cc6n5)CC4)C3)cc21 (stereo partly shown) [I-264],< 50
15,Cn1c(=O)n(C2CCC(=O)NC2=O)c2cccc(CCC3CCN(C[C@H]4CC[C@H](n5cc6cc(NC(=O)c7cccc(C(F)(F)F)n7)c(C(C)(C)O)cc6n5)CC4)CC3)c21 (stereo partly shown) [I-265],< 50
16,Cn1c(=O)n(C2CCC(=O)NC2=O)c2cccc(CCOC3CCN(C[C@H]4CC[C@H](n5cc6cc(NC(=O)c7cccc(C(F)(F)F)n7)c(C(F)F)cc6n5)CC4)CC3)c21 (stereo partly shown) [I-266],50 to 100
17,Cn1c(=O)n(C2CCC(=O)NC2=O)c2cccc(CCOC3CCN(C[C@H]4CC[C@H](n5cc6cc(NC(=O)c7cccc(C(F)(F)F)n7)c(C(C)(C)O)cc6n5)CC4)CC3)c21 (stereo partly shown) [I-267],< 50

# Same assay, conditions: OCI-LY10 cells, 24 hrs incubation, read-out: IRAK4 degradation in OCI-LY10 at 24 hrs: DC50
row,Compound,DC50 [nM]
1,COc1cc2nn([C@H]3CC[C@H](CN(C)C4CCC5(CC4)CC(Nc4cccc6c4C(=O)N(C4CCC(=O)NC4=O)C6=O)C5)CC3)cc2cc1NC(=O)c1cccc(C(F)(F)F)n1 (stereo partly shown) [I-223],50 to 100
2,COc1cc2nn([C@H]3CC[C@H](CN4CCC5(CC4)CC(Nc4cccc6c4C(=O)N(C4CCC(=O)NC4=O)C6=O)C5)CC3)cc2cc1NC(=O)c1ccc(F)c(C)n1 (stereo partly shown) [I-224],< 50
3,CN(CCCO[C@H]1C[C@H](Nc2cccc3c2C(=O)N(C2CCC(=O)NC2=O)C3=O)C1)C[C@H]1CC[C@H](n2cc3cc(N(C)C(=O)c4cccc(C(F)(F)F)n4)c(C(C)(C)O)cc3n2)CC1 (stereo partly shown) [I-225],500 to 1000
4,COc1cc2nn([C@H]3CC[C@H](CN4CCO[C@@H](CCCNc5cccc6c5C(=O)N(C5CCC(=O)NC5=O)C6=O)C4)CC3)cc2cc1NC(=O)c1cccc(C(F)(F)F)n1 (stereo partly shown) [I-227],50 to 100
5,COc1cc2nn([C@H]3CC[C@H](CN(C)CCCO[C@H]4C[C@H](Nc5cccc6c5C(=O)N(C5CCC(=O)NC5=O)C6=O)C4)CC3)cc2cc1NC(=O)c1cccc(C(F)(F)F)n1 (stereo partly shown) [I-230],50 to 100
6,COc1cc2nn([C@H]3CC[C@H](CN4CCC(COCCCNc5cccc6c5C(=O)N(C5CCC(=O)NC5=O)C6=O)CC4)CC3)cc2cc1NC(=O)c1cccc(C(C)(C)F)n1 (stereo partly shown) [I-231],50 to 100
7,COc1cc2nn([C@H]3CC[C@H](CN4CCC5(CC4)CC(CNc4cccc6c4C(=O)N(C4CCC(=O)NC4=O)C6=O)C5)CC3)cc2cc1NC(=O)c1cccc(C(C)(C)F)n1 (stereo partly shown) [I-232],50 to 100
8,CC(C)(O)c1cc2nn([C@H]3CC[C@H](CN4CCO[C@@H](CCCNc5cccc6c5C(=O)N(C5CCC(=O)NC5=O)C6=O)C4)CC3)cc2cc1NC(=O)c1cccc(C(F)(F)F)n1 (stereo partly shown) [I-233],< 50
9,CC(C)(O)c1cc2nn([C@H]3CC[C@H](CN4CCC(O[C@H]5C[C@H](Nc6cccc7c6C(=O)N(C6CCC(=O)NC6=O)C7=O)C5)CC4)CC3)cc2cc1NC(=O)c1cccc(C(C)(C)F)n1 (stereo partly shown) [I-234],50 to 100
10,CN(C[C@H]1CC[C@H](n2cc3cc(NC(=O)c4cccc(C(C)(C)C)n4)c(C(C)(C)O)cc3n2)CC1)[C@H]1CC[C@H](Nc2cccc3c2C(=O)N(C2CCC(=O)NC2=O)C3=O)CC1 (stereo partly shown) [I-236],50 to 100
11,CN(C[C@H]1CC[C@H](n2cc3cc(NC(=O)c4cccc(C(F)(F)F)n4)c(C(C)(C)O)cc3n2)CC1)C1CCC2(CC1)CC(Nc1cccc3c1C(=O)N(C1CCC(=O)NC1=O)C3=O)C2 (stereo partly shown) [I-238],< 50
12,CC(C)(C)c1cccc(C(=O)Nc2cc3cn([C@H]4CC[C@H](CN5CCC6(CC5)CC(Nc5cccc7c5C(=O)N(C5CCC(=O)NC5=O)C7=O)C6)CC4)nc3cc2C(C)(C)O)n1 (stereo partly shown) [I-249],50 to 100
13,CC(C)(O)c1cc2nn([C@H]3CC[C@H](CN4CCC5(CC4)CC(CCNc4cccc6c4C(=O)N(C4CCC(=O)NC4=O)C6=O)C5)CC3)cc2cc1NC(=O)c1cccc(C(C)(F)F)n1 (stereo partly shown) [I-250],50 to 100
14,CC(C)(O)c1cc2nn([C@H]3CC[C@H](CN4CCC5(CC4)CC(CNc4cccc6c4C(=O)N(C4CCC(=O)NC4=O)C6=O)C5)CC3)cc2cc1NC(=O)c1cccc(C(C)(C)F)n1 (stereo partly shown) [I-251],50 to 100
15,"COc1cc2nn([C@H]3CC[C@H](CN4CC5(CC(CCNc6cccc7c6C(=O)N([C@@H]6CCC(=O)NC6=O)C7=O)C5)C4)CC3)cc2cc1NC(=O)c1cccc(C(C)(F)F)n1 [I-254, 6-(1,1-Difluoroethyl)-N-[2-[4-[[6-[2-[[2-[(3R)-2,6-dioxo-3-piperidyl]-1,3-dioxo-isoindolin-4-yl]amino]ethyl]-2-azaspiro[3.3]heptan-2-yl]methyl]cyclohexyl]-6-methoxy-indazol-5-yl]pyridine-2-carboxamide]",< 50
16,"COc1cc2nn([C@H]3CC[C@H](CN4CC5(CC(CCNc6cccc7c6C(=O)N([C@H]6CCC(=O)NC6=O)C7=O)C5)C4)CC3)cc2cc1NC(=O)c1cccc(C(C)(F)F)n1 [I-255, 6-(1,1-Difluoroethyl)-N-[2-[4-[[6-[2-[[2-[(3S)-2,6-dioxo-3-piperidyl]-1,3-dioxo-isoindolin-4-yl]amino]ethyl]-2-azaspiro[3.3]heptan-2-yl]methyl]cyclohexyl]-6-methoxy-indazol-5-yl]pyridine-2-carboxamide]",< 50
17,"CN(CCCO[C@H]1C[C@H](Nc2cccc3c2C(=O)N(C2CCC(=O)NC2=O)C3=O)C1)C[C@@]1(C)Cc2cc(NC(=O)c3cccc(C(F)(F)F)n3)c(N3CCOCC3)cc2O1 (stereo partly drawn) [I-256, N-((2R)-2-(((3-((1r,3R)-3-((2-(2,6-Dioxopiperidin-3-yl)-1,3-dioxoisoindolin-4-yl)amino)cyclobutoxy)propyl)(methyl)amino)methyl)-2-methyl-6-morpholino-2,3-dihydrobenzofuran-5-yl)-6-(trifluoromethyl)picolinamide]",500 to 1000
18,COc1cc2nn([C@H]3CC[C@H](CN(C)[C@H]4CC[C@H](CNc5cccc6c5C(=O)N(C5CCC(=O)NC5=O)C6=O)CC4)CC3)cc2cc1NC(=O)c1cccc(C)n1 (stereo partly shown) [I-268],50 to 100
19,COc1cc2nn([C@H]3CC[C@H](CN4CCC5(CC4)CC(CNc4cccc6c4C(=O)N(C4CCC(=O)NC4=O)C6=O)C5)CC3)cc2cc1NC(=O)c1ccccn1 (stereo partly shown) [I-273],50 to 100
20,COc1cc2nn([C@H]3CC[C@H](CN4CC5(CC(CNc6cccc7c6C(=O)N(C6CCC(=O)NC6=O)C7=O)C5)C4)CC3)cc2cc1NC(=O)c1cccc(C(F)(F)F)n1 (stereo partly shown) [I-274],50 to 100
